Assay [1] concerns the target T1, Receptor-type tyrosine-protein phosphatase C (Homo sapiens, UniProt P08575).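 Also: inhibition of CD45 enzyme activity measured using DiFMUP as substrate; in other assays of this panel Not Active means under 50% inhibition at 10 µM.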
T1 sequence (P08575 whole entry): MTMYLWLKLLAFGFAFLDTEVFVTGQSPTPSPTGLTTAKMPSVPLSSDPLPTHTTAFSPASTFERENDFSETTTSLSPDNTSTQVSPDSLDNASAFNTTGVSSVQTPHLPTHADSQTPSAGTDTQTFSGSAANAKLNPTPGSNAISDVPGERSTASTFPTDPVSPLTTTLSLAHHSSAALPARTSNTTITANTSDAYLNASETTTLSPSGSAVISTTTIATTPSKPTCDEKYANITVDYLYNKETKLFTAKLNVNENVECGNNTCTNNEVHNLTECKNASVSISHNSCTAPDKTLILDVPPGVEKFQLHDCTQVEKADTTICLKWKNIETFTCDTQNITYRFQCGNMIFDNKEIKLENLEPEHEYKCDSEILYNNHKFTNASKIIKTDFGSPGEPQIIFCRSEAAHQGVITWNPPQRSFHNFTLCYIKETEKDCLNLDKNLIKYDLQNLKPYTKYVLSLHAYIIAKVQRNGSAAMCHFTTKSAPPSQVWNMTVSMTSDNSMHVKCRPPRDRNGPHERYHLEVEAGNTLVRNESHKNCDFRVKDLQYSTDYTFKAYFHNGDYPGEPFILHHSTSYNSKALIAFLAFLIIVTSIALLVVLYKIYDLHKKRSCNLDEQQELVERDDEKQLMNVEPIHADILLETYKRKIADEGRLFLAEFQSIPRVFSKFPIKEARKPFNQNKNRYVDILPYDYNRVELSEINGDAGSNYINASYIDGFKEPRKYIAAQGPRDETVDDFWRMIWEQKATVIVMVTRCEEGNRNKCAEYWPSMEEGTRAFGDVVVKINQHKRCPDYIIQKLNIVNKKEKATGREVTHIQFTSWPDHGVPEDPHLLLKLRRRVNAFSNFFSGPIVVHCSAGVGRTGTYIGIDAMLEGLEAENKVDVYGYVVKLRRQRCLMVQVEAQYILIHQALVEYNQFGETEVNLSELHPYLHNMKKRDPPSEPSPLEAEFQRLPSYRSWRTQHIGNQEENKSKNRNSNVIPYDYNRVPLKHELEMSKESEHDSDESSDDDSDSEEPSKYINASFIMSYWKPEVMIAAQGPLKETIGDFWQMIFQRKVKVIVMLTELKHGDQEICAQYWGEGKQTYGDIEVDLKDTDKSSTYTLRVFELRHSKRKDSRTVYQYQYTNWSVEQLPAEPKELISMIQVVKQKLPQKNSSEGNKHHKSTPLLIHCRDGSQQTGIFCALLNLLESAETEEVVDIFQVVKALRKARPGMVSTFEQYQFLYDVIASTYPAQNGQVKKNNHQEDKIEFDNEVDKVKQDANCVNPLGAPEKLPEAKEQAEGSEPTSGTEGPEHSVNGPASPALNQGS
Details: species or system Escherichia coli.

In assay [2] the target is Epidermal growth factor receptor (Homo sapiens, UniProt P00533). The experiment in a line: DRUGMATRIX: Protein Tyrosine Kinase, EGF Receptor enzyme inhibition (substrate: Poly(Glu:Tyr)). Format: cell-based, Insect cells. The following applies: Not Active = under 50% inhibition at 10 µM.
The target of assay [3] is T2, Alpha-2C adrenergic receptor (Homo sapiens, UniProt P18825).
T2 sequence (P18825 whole entry): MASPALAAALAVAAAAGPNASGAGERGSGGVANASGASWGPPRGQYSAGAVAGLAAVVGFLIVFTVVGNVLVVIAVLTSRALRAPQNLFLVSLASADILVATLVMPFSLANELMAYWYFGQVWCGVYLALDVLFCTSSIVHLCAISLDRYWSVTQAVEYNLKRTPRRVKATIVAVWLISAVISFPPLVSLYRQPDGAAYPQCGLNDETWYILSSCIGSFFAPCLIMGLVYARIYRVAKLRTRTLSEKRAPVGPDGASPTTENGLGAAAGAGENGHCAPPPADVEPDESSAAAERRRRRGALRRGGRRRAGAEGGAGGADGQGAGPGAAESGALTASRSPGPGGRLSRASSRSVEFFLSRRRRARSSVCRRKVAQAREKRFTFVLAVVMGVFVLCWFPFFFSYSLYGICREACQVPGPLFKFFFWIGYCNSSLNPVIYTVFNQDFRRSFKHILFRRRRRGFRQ
The assay is described as follows: DRUGMATRIX: Adrenergic Alpha-2C radioligand binding (ligand: [3H] MK-912). Format: cell membranes, Sf9, Membrane.

Assay [4] concerns the target T3, Muscarinic acetylcholine receptor M5 (Homo sapiens, UniProt P08912). Also: in other assays of this panel Not Active means under 50% inhibition at 10 µM.
T3 sequence (P08912 whole entry): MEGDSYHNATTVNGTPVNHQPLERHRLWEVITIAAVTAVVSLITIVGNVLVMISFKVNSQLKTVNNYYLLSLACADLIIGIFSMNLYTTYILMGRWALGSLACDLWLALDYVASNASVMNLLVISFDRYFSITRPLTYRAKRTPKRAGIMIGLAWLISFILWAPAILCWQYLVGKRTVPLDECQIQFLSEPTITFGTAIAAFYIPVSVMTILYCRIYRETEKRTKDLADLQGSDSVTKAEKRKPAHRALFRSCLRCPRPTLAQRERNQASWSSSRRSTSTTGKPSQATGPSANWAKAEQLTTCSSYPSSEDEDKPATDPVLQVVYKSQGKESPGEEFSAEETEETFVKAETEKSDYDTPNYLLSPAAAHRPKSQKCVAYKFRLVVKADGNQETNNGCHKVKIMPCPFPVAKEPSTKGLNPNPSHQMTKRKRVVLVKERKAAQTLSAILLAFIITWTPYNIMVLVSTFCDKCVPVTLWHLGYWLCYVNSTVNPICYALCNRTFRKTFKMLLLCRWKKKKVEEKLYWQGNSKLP
Format: cell membranes, CHO-K1, Membrane. As to conditions: cho-k1.

The target of assay [5] is Platelet-activating factor receptor (Homo sapiens, UniProt P25105). Format: tissue-based. Also: in other assays of this panel Not Active means under 50% inhibition at 10 µM.
Sequence of Platelet-activating factor receptor (P25105 whole entry): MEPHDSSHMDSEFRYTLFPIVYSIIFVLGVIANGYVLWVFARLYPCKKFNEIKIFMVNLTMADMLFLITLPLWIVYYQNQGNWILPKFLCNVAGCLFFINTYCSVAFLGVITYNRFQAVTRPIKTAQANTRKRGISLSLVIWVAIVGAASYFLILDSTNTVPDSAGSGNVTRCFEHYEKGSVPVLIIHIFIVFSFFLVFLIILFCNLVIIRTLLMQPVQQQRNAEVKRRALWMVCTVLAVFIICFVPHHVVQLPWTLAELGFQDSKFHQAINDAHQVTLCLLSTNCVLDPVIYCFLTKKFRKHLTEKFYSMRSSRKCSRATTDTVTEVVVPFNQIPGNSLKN

Here are results for 20 compounds from ChEMBL document CHEMBL1909046, “DrugMatrix in vitro pharmacology data”.

*1 amine or outer side, *2 acyl side, *3 side chain or, on linkers, in order; H or OH if unused. Where a SMILES comes first, the peptide text is derived from it. Bridges are numbered along the chain shown (N, C = ends). Roman numbers before positions name the chains, in order. [ ]: non-standard residue; d: D form. Actinocin(1to9) = Cc1c2oc3c(C)ccc(C(=O)[*:2])c3nc-2c(C(=O)[*:1])c(N)c1=O; NMeV = CN[C@H](C(=O)O)C(C)C; Sar = CNCC(=O)O

A word on the IC50: it is the concentration needed to halve the response being measured. For orientation: Ki means a dissociation constant, usually derived from enzyme kinetics or from competition with a known ligand. As to `COc1ccc(C[C@H]2NC[C@H](O)[C@H]2OC(C)=O)cc1` [ANISOMYCIN], the IC50 result in assay [1], in assay [2] (insect cells), in assay [3] (sf9), in assay [4] and in assay [5] was “Not Active” each time. The Ki result in assay [1], in assay [2] (insect cells), in assay [3] (sf9), in assay [4] and in assay [5] was “Not Active” throughout.
For the compound `CNNCc1ccc(C(=O)NC(C)C)cc1` [PROCARBAZINE], the IC50 entry in assay [1], in assay [2] (insect cells), in assay [3] (sf9), in assay [4] and in assay [5] was “Not Active” in each case.
With `Cc1onc(O)c1CC(N)C(=O)O` (racemic) [(R,S)-AMPA], the IC50 entry in assay [1], in assay [2] (insect cells), in assay [3] (sf9), in assay [4] and in assay [5] was “Not Active” each time.
Regarding `Cc1c(O)c(=O)ccn1C` [DEFERIPRONE], the IC50 result in assay [1], in assay [2] (insect cells), in assay [3] (sf9), in assay [4] and in assay [5] was “Not Active” throughout.
As to `Nc1ncn([C@@H]2O[C@H](CO)[C@@H](O)[C@H]2O)c(=O)n1` [AZACITIDINE], the IC50 result in assay [1], in assay [2] (insect cells), in assay [3] (sf9), in assay [4] and in assay [5] was “Not Active” in each case.
Take `CCn1cc(C(=O)O)c(=O)c2cc(F)c(N3CCNCC3)cc21` [NORFLOXACIN]: the IC50 entry in assay [1], in assay [2] (insect cells), in assay [3] (sf9), in assay [4] and in assay [5] was “Not Active” in each case.
Turning to `CN(C)CCCN1c2ccccc2Sc2ccc(Cl)cc21` [CHLORPROMAZINE], the IC50 result is “Not Active” in assay [1], 28900 nM in assay [2] (read-out: IC50) and “Not Active” in assay [5].
Take `CCOC(=O)C1=C(COCCN)NC(C)=C(C(=O)OC)C1c1ccccc1Cl` (stereo unspecified) [AMLODIPINE]: the 50% inhibitory concentration (IC50) result in assay [1], in assay [2] (insect cells), in assay [4] and in assay [5] was “Not Active” each time.
Regarding `CC1Cc2ccccc2N1NC(=O)c1ccc(Cl)c(S(N)(=O)=O)c1` (stereo unspecified) [INDAPAMIDE], the IC50 result in assay [1], in assay [2] (insect cells), in assay [3] (sf9), in assay [4] and in assay [5] was “Not Active” in each case.
As to LEAD (II) ACETATE, the IC50 entry in assay [1], in assay [2] (insect cells), in assay [3] (sf9), in assay [4] and in assay [5] was “Not Active” each time. In addition, the Ki entry in assay [1], in assay [2] (insect cells), in assay [3] (sf9), in assay [4] and in assay [5] was “Not Active” in each case.
For `Cc1c2oc3c(C)ccc(C(=O)N[C@@H]4C(=O)N[C@H](C(C)C)C(=O)N5CCC[C@H]5C(=O)N(C)CC(=O)N(C)[C@@H](C(C)C)C(=O)O[C@@H]4C)c3nc-2c(C(=O)N[C@@H]2C(=O)N[C@H](C(C)C)C(=O)N3CCC[C@H]3C(=O)N(C)CC(=O)N(C)[C@@H](C(C)C)C(=O)O[C@@H]2C)c(N)c1=O` [DACTINOMYCIN] (I: T[dV]P[Sar][NMeV] / II: T[dV]P[Sar][NMeV]; ester I:1-I:C, II:1-II:C; linker I:N-II:N via Actinocin(1to9)), the 50% inhibitory concentration (IC50) entry in assay [1], in assay [2] (insect cells), in assay [3] (sf9), in assay [4] and in assay [5] was “Not Active” each time.
As for `NCCCCCC(=O)O` [AMINOCAPROIC ACID], the IC50 result in assay [1], in assay [2] (insect cells), in assay [3] (sf9), in assay [4] and in assay [5] was “Not Active” throughout.
Consider `c1ccc(Nc2ccc(Nc3ccccc3)cc2)cc1`, for which the IC50 result in assay [1], in assay [2] (insect cells), in assay [3] (sf9), in assay [4] and in assay [5] was “Not Active” each time.
For `NC(=O)N1c2ccccc2CCc2ccccc21`, the IC50 result in assay [1], in assay [2] (insect cells), in assay [3] (sf9), in assay [4] and in assay [5] was “Not Active” in each case.
On to `Cc1ccc(-c2cc(C(F)(F)F)nn2-c2ccc(S(N)(=O)=O)cc2)cc1` [CELECOXIB], for which the IC50 result in assay [1], in assay [2] (insect cells), in assay [3] (sf9), in assay [4] and in assay [5] was “Not Active” in each case.
Take `Cc1onc(-c2ccccc2Cl)c1C(=O)N[C@@H]1C(=O)N2[C@@H]1SC(C)(C)[C@@H]2C(=O)O` [CLOXACILLIN]: the IC50 entry in assay [1], in assay [2] (insect cells), in assay [3] (sf9), in assay [4] and in assay [5] was “Not Active” each time.
Consider `CCCN1C[C@H](CSC)C[C@@H]2c3cccc4[nH]cc(c34)C[C@H]21` [PERGOLIDE], for which the IC50 result in assay [1] was “Not Active”; in assay [2] (insect cells), “Not Active”; in assay [3], 1410 nM; in assay [4], “Not Active”; in assay [5], “Not Active”. Besides, the Ki in assay [3] (read-out: Ki) came out at 205 nM.
In the case of LIPOPOLYSACCHARIDE E. COLI O55:B5, the IC50 result was “Not Active” in assay [1]; 188 nM in assay [2] (insect cells, read-out: IC50); “Not Active” in assay [3] (sf9); “Not Active” in assay [4]; “Not Active” in assay [5]. Moreover, the Ki result in assay [1], in assay [3] (sf9), in assay [4] and in assay [5] was “Not Active” throughout.
As for `CC(O)CO` (stereo unspecified) [PROPYLENE GLYCOL], the IC50 entry in assay [1], in assay [2] (insect cells), in assay [3] (sf9), in assay [4] and in assay [5] was “Not Active” throughout.
On to `Cc1ccc(N(CC2=NCCN2)c2cccc(O)c2)cc1` [PHENTOLAMINE], for which the IC50 entry in assay [1], in assay [2] (insect cells), in assay [4] and in assay [5] was “Not Active” in each case.
